The values that follow come from patent US6949544B2, “Inhibitors of c-Jun N-terminal kinases (JNK) and other protein kinases” (Vertex Pharmaceuticals Incorporated, priority 2001, dated 2005).

Broadly, the Ki is the equilibrium dissociation constant of an inhibitor or competing ligand from its target.

Each structure is given as a SMILES string.

The target in the first assay is T1, Lck kinase purified from bovine thymus (Bos taurus, UniProt Q3ZCM0).
T1 construct: Lck kinase purified from bovine thymus; purchased Upstate Biotechnology 14-106; host or cells: bovine thymus (tissue-purified)
T1 sequence (Q3ZCM0 1-509): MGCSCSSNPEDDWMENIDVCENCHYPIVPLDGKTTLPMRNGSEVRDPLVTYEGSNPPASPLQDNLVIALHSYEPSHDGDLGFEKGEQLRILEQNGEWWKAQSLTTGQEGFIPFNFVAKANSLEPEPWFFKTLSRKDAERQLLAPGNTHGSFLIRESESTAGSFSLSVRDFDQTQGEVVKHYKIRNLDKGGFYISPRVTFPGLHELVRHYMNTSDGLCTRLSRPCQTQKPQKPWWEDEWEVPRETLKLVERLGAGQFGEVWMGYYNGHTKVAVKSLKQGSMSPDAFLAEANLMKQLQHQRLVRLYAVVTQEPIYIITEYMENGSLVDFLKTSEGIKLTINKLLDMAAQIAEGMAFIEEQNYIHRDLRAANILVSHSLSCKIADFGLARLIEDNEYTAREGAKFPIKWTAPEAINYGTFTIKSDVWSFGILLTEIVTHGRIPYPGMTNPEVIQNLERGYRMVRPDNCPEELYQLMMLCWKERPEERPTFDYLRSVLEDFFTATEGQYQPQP
The assay can be described thus: Lck inhibition assay (33P incorporation into poly Glu-Tyr). Type of assay: biochemical. The conditions noted are these: 10 μM ATP; read-out: Activity in the Lck Inhibition Assay (Ki rating A-C). The method, then:
The compounds were assayed as inhibitors of Lck kinase purified from bovine thymus (from Upstate Biotechnology, cat. no. 14-106). Lck kinase activity was monitored by following the incorporation of ^33P from ATP into the tyrosine of a random poly Glu-Tyr polymer substrate of composition, Glu:Tyr=4:1 (Sigma, cat. no. P-0275). The following were the final concentrations of the assay components: 0.05 M HEPES, pH 7.6, 10 mM MgCl2, 2 mM DTT, 0.25 mg/ml BSA, 10 μM ATP (1-2 μCi ^33P-ATP per reaction), 5 mg/ml poly Glu-Tyr, and 1-2 units of lck kinase. In a typical assay, all the reaction components with the exception of ATP were pre-mixed and aliquoted into assay plate wells. […] The assay plate was incubated at 30° C. for 10 min before initiating the reaction with ^33P-ATP. After 20 min of reaction, the reactions were quenched with 150 μl of 10% trichloroacetic acid (TCA) containing 20 mM Na3PO4. The quenched samples were then transferred to a 96-well filter plate (Whatman, UNI-Filter GF/F Glass Fiber Filter, cat no. 7700-3310) installed on a filter plate vacuum manifold. Filter plates were washed four times with 10% TCA containing 20 mM Na3PO4 and then 4 times with methanol. 200 μl of scintillation fluid was then added to each well. The plates were sealed and the amount of radioactivity associated with the filters was quantified on a TopCount scintillation counter.
Regarding `COc1ccc(Nc2nccc(-c3ccc(OC)c(OC)c3OC)n2)cc1` [II-12], the Ki is 0.1 to 1 µM. Turning to `COc1ccc(-c2ccnc(Nc3cccc(Oc4ccccc4)c3)n2)c(OC)c1OCCN1CCOCC1` [II-19], the Ki is over 1 µM. As to `COc1ccc(-c2ccnc(Nc3cccc(-c4ccccc4Cl)c3)n2)c(OC)c1OC` [II-38], the Ki lay in the range of 0.1 to 1 µM.

As for `COc1ccc(Oc2ccccc2)cc1Nc1nccc(-c2ccc(OC)c(OC)c2OC)n1` [II-31], the Ki was under 0.1 µM.

Turning to `COc1ccc(-c2ccnc(Nc3cccc(Oc4ccncc4)c3)n2)c(OC)c1OC` [II-23], the Ki was under 0.1 µM. In the case of `COc1ccc(-c2ccnc(Nc3cccc(Oc4ccccc4)c3)n2)c2c1OCCO2` [II-15], the Ki is 0.1 to 1 µM. For the molecule `COc1ccc(-c2ccnc(Nc3cccc(-c4cccc(F)c4)c3)n2)c(OC)c1OC` [II-36], the Ki was under 0.1 µM. As to `COc1ccc(-c2ccnc(Nc3cccc(-c4cccc(Cl)c4)c3)n2)c(OC)c1OC` [II-39], the Ki is under 0.1 µM. Regarding `COc1cc(Oc2ccccc2)nc(Nc2nccc(-c3ccc(OC)c(OC)c3OC)n2)n1` [II-34], the Ki was over 1 µM. On the same count and under the same terms, next, `COc1ccc(-c2ccnc(Nc3cccc(Oc4ccccc4)c3)n2)c(OCCN2CCOCC2)c1OC` [II-21]: over 1 µM; `COc1ccc(-c2ccnc(Nc3cccc(OCc4ccccc4)c3)n2)c(OC)c1OC` [II-2]: 0.1 to 1 µM.

Consider `COc1ccc(-c2ccnc(Nc3cccc(-c4ccc(Cl)cc4)c3)n2)c(OC)c1OC` [II-40], for which the Ki was under 0.1 µM. The same measure, in the same setting: with `COc1cccc(-c2cccc(Nc3nccc(-c4ccc(OC)c(OC)c4OC)n3)c2)c1` [II-42] the figure was 0.1 to 1 µM; with `COc1ccccc1-c1cccc(Nc2nccc(-c3ccc(OC)c(OC)c3OC)n2)c1` [II-41], 0.1 to 1 µM. As to `COc1ccc(-c2ccnc(Nc3ccc([N+](=O)[O-])cc3)n2)c(OC)c1OC` [II-4], the Ki was 0.1 to 1 µM. In the case of `COc1ccc(-c2ccnc(Nc3cccc(OCc4ccccc4)c3)n2)c(OC)c1OCCN1CCOCC1` [II-20], the Ki was over 1 µM. Regarding `COc1ccc(-c2ccnc(Nc3cccc(-c4ccccc4F)c3)n2)c(OC)c1OC` [II-35], the Ki was under 0.1 µM. Still for that read-out and setting: with `COc1ccc(-c2ccnc(Nc3cccc(OCc4ccccc4)c3)n2)c2c1OCCO2` [II-16] the figure was 0.1 to 1 µM. Consider `COc1cccc(Nc2nccc(-c3ccc(OC)c(OC)c3OC)n2)c1` [II-6], for which the Ki lay in the range of 0.1 to 1 µM. As for `COc1ccc(-c2ccnc(Nc3cccc(-c4ccc(F)cc4)c3)n2)c(OC)c1OC` [II-37], the Ki was under 0.1 µM. `COc1ccc(-c2ccnc(Nc3cccc(F)c3)n2)c(OC)c1OC` [II-5]: the Ki was over 1 µM. In the case of `COc1ccc(-c2ccnc(Nc3cccc(C)c3)n2)c(OC)c1OC` [II-10], the Ki was over 1 µM. Take `COc1c(-c2ccnc(Nc3cccc(Oc4ccccc4)c3)n2)ccc2c1OCCO2` [II-17, [4-(5-Methoxy-2,3-dihydro-benzo[1,4]dioxin-6-yl)-pyrimidin-2-yl]-(3-phenoxyphenyl)-amine]: the Ki was over 1 µM. For `COc1ccc(-c2ccnc(Nc3cccc(OCc4ccccc4)c3)n2)c(OCCN2CCOCC2)c1OC` [II-22], the Ki is over 1 µM.

Staying with this assay, now noted: at a 5 μM inhibitor concentration.
As for `COc1ccc(-c2ccnc(Nc3cc(C)cc(C)c3)n2)c(OC)c1OC` [II-14, (3,5-Dimethylphenyl)-[4-(2,3,4-trimethoxyphenyl)-pyrimid-2-yl]-amine], the “Activity in the Lck Inhibition Assay (percent inhibition rating D-F)” value is “F (percent inhibition of between 67% and 100%)”.
